Laboratory results reported in US11285156B2, “Substituted piperazines as KRAS G12C inhibitors” (Amgen Inc., priority 2018, dated 2022).
Read-outs that look alike come from different tables or passages of the source.

What was measured:
[1] = system: Phosphorylation of ERK1/2 in MIA PaCa-2 cells; experiment: Phospho-ERK1/2 MSD assay in MIA PaCa-2 cells; assay type: cell-based; conditions: read-out: p-ERK IC50 (2 h, MiaPaCa-2; μM), 2 h compound treatment, MIA PaCa-2 cells, EGF stimulated
Method in brief: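 Phospho-ERK1/2 measured by MSD electrochemiluminescence kit in RIPA lysates of MIA PaCa-2 cells. Cells were treated with compound titrations for 2 or 4 h at 37 °C, 5% CO2, followed by a 10 min pulse of 10 ng/mL EGF.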

[2] = system: Phosphorylation of ERK1/2 in A549 cells; experiment: Phospho-ERK1/2 MSD assay in A549 cells; assay type: cell-based; conditions: read-out: p-ERK IC50 (2 h, A549; μM), 2 h compound treatment, A549 cells, EGF stimulated
Method in brief: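 Phospho-ERK1/2 was quantified by MSD immunoassay in RIPA lysates of MIA PaCa-2 or A549 cells. Before lysis, cells received 10 ng/mL EGF for 10 min after 2 or 4 h exposure at 37° C. to a compound concentration series.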

[3] = target: GDP-bound KRAS protein (aa 1-169), containing both G12C and C118A amino acid substitutions (Homo sapiens (Human), UniProt P01116, C118A/G12C); experiment: Coupled nucleotide exchange assay (SOS-mediated nucleotide exchange, AlphaScreen); assay type: biochemical; conditions: 5 min compound pre-incubation; for IC50: read-out: Coupled exchange IC50 (5 min; μM)
Chain of GDP-bound KRAS protein (aa 1-169), containing both G12C and C118A amino acid substitutions (P01116 other isoform, or with tags, fused parts or gaps G12C/C118A): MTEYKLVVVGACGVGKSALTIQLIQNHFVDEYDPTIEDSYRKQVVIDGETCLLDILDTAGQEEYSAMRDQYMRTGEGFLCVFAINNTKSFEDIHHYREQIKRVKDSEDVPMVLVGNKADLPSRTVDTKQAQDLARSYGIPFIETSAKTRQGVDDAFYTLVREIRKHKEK

Row | Coupled exchange IC50 (5 min; μM) [3] | Compound | IC50 ([1]; Homo sapiens, MIA PaCa-2, 2 h) | IC50 ([2]; Homo sapiens, A549, 2 h) | IC50 [1] | IC50 [2] | IC50 [3]
1 | 0.132 µM | C=CC(=O)N1C[C@H](C)N(c2nc(=O)n(-c3c(C)nc(CC)nc3C(C)C)c3nc(-c4ccccc4F)c(Cl)cc23)C[C@H]1C (single isomer, unassigned) [Example 199] | 0.087 µM | > 7.5 µM | – | – | –
2 | 0.03 µM | C=CC(=O)N1C[C@H](C)N(c2nc(=O)n(-c3c(C)nc(F)nc3C(C)C)c3nc(-c4ccccc4F)c(Cl)cc23)C[C@H]1C (single isomer, unassigned) [Example 200] | 0.094 µM | > 7.5 µM | – | – | –
3 | 0.075 µM | C=CC(=O)N1C[C@H](C)N(c2nc(=O)n(-c3c(C)nc(C(=C)C)nc3C(C)C)c3nc(-c4ccccc4F)c(Cl)cc23)C[C@H]1C (single isomer, unassigned) [Example 201] | 0.205 µM | 5.05 µM | – | – | –
4 | 0.071 µM | C=CC(=O)N1C[C@H](C)N(c2nc(=O)n(-c3c(C)nc(C=C)nc3C(C)C)c3nc(-c4ccccc4F)c(Cl)cc23)C[C@H]1C (single isomer, unassigned) [Example 202] | 0.075 µM | > 7.5 µM | – | – | –
5 | 0.223 µM | C=CC(=O)N1C[C@H](C)N(c2nc(=O)n(-c3c(C)nc(C(C)C)nc3C(C)C)c3nc(-c4ccccc4F)c(Cl)cc23)C[C@H]1C (single isomer, unassigned) [Example 203] | 0.243 µM | > 7.5 µM | – | – | –
6 | 0.066 µM | C#Cc1nc(C)c(-n2c(=O)nc(N3C[C@@H](C)N(C(=O)C=C)C[C@@H]3C)c3cc(Cl)c(-c4ccccc4F)nc32)c(C(C)C)n1 (single isomer, unassigned) [Example 204] | 0.091 µM | 3.01 µM | – | – | –
7 | – | C=CC(=O)N1C[C@H](C)N(c2nc(=O)n(-c3c(C(C)C)cccc3S(C)(=O)=O)c3nc(-c4ccccc4F)c(Cl)cc23)C[C@H]1C (single isomer, unassigned) [Example 208-2] | – | – | 0.106 µM | > 7.5 µM | 0.117 µM
8 | 0.088 µM | C=CC(=O)N1C[C@H](C)N(c2nc(=O)n(-c3c(C(C)C)cccc3[S+](C)[O-])c3nc(-c4ccccc4F)c(Cl)cc23)C[C@H]1C (single isomer, unassigned) [Example 209-1] | 0.116 µM | > 7.5 µM | – | – | –
9 | – | C=CC(=O)N1C[C@H](C)N(c2nc(=O)n(-c3c(C)ccnc3C(C)C)c3nc(C4CC4(C)C)c(Cl)cc23)C[C@H]1C (stereo partly drawn) [93-2] | – | – | 0.558 µM | > 7.5 µM | 0.305 µM
10 | – | C=CC(=O)N1C[C@H](C)N(c2nc(=O)n(-c3c(N(C)C)ccnc3C(C)C)c3nc(-c4ccccc4F)c(Cl)cc23)C[C@H]1C [Example 55-51, 6-Chloro-1-[4-(dimethylamino)-2-isopropyl-3-pyridyl]-4-[(2S,5R)-2,5-dimethyl-4-prop-2-enoyl-piperazin-1-yl]-7-(2-fluorophenyl)pyrido[2,3-d]pyrimidin-2-one] | – | > 7.5 µM | 0.079 µM | – | 0.19 µM
11 | – | C=CC(=O)N1C[C@H](C)N(c2nc(=O)n(-c3c(Cl)ccnc3C(C)C)c3nc(OC)c(-c4ccccc4F)cc23)C[C@H]1C [Example 55-52, 1-(4-Chloro-2-isopropyl-3-pyridyl)-4-[(2S,5R)-2,5-dimethyl-4-prop-2-enoyl-piperazin-1-yl]-6-(2-fluorophenyl)-7-methoxy-pyrido[2,3-d]pyrimidin-2-one] | 10 µM | > 7.5 µM | – | – | 10.2 µM
12 | – | C=CC(=O)N1C[C@H](C)N(c2nc(=O)n(C)c3nc(-c4ccccc4F)c(Cl)cc23)C[C@H]1C [Example 55-59, 6-Chloro-4-[(2S,5R)-2,5-dimethyl-4-prop-2-enoyl-piperazin-1-yl]-7-(2-fluorophenyl)-1-methyl-pyrido[2,3-d]pyrimidin-2-one] | 10 µM | > 7.5 µM | – | – | 174 µM
13 | – | C=CC(=O)N1C[C@H](C)N(c2nc(=O)n(C(C)C)c3nc(-c4ccccc4F)c(Cl)cc23)C[C@H]1C [Example 55-60, 6-Chloro-4-[(2S,5R)-2,5-dimethyl-4-prop-2-enoyl-piperazin-1-yl]-7-(2-fluorophenyl)-1-isopropyl-pyrido[2,3-d]pyrimidin-2-one] | 7.77 µM | > 7.5 µM | – | – | 7.85 µM
14 | – | C=CC(=O)N1C[C@H](C)N(c2nc(=O)n(-c3c(CN4CCCC4)cccc3C(C)C)c3nc(-c4ccccc4F)c(Cl)cc23)C[C@H]1C [Example 80-10, 6-Chloro-4-[(2S,5R)-2,5-dimethyl-4-prop-2-enoyl-piperazin-1-yl]-7-(2-fluorophenyl)-1-[2-isopropyl-6-(pyrrolidin-1-ylmethyl)phenyl]pyrido[2,3-d]pyrimidin-2-one] | 0.063 µM | > 7.5 µM | – | – | 0.077 µM
15 | – | C=CC(=O)N1C[C@H](C)N(c2nc(=O)n(-c3c(CN4CC(F)(F)C4)cccc3C(C)C)c3nc(-c4ccccc4F)c(Cl)cc23)C[C@H]1C [Example 80-11, 6-chloro-1-[2-[(3,3-difluoroazetidin-1-yl)methyl]-6-isopropyl-phenyl]-4-[(2S,5R)-2,5-dimethyl-4-prop-2-enoyl-piperazin-1-yl]-7-(2-fluorophenyl)pyrido[2,3-d]pyrimidin-2-one] | 0.222 µM | > 7.5 µM | – | – | 0.078 µM
16 | – | C=CC(=O)N1C[C@H](C)N(c2nc(=O)n(-c3c(CN4CCC4)cccc3C(C)C)c3nc(-c4ccccc4F)c(Cl)cc23)C[C@H]1C [Example 80-12, 1-[2-(azetidin-1-ylmethyl)-6-isopropyl-phenyl]-6-chloro-4-[(2S,5R)-2,5-dimethyl-4-prop-2-enoyl-piperazin-1-yl]-7-(2-fluorophenyl)pyrido[2,3-d]pyrimidin-2-one] | 0.074 µM | > 7.5 µM | – | – | 0.064 µM

Row | Compound | Coupled exchange IC50 (5 min; μM) [3] | IC50 ([1]; Homo sapiens, MIA PaCa-2, 2 h) | IC50 ([2]; Homo sapiens, A549, 2 h) | IC50 [1] | IC50 [2] | IC50 [3]
17 | C=CC(=O)N1C[C@H](C)N(c2nc(=O)n(-c3c(C(C)C)cnnc3C(C)C)c3nc(-c4ccccc4F)c(Cl)cc23)C[C@H]1C (single isomer, unassigned) [Example 205-1] | 0.098 µM | 0.07 µM | > 7.5 µM | – | – | –
18 | C=CC(=O)N1C[C@H](C)N(c2nc(=O)n(-c3c(C(C)C)cnnc3C(C)C)c3nc(-c4ccccc4F)c(Cl)cc23)C[C@H]1C (single isomer, unassigned) [Example 205-2] | 0.078 µM | – | – | 0.091 µM | > 7.5 µM | –
19 | C=CC(=O)N1C[C@H](C)N(c2nc(=O)n(-c3c(C)cc([S+](C)[O-])cc3C(C)C)c3nc(-c4ccccc4C)c(Cl)cc23)C[C@H]1C (single isomer, unassigned) [Example 213-2] | 0.072 µM | 0.069 µM | > 7.5 µM | – | – | –
20 | C=CC(=O)N1C[C@H](C)N(c2nc(=O)n(-c3c(C)cc([S+](C)[O-])cc3C(C)C)c3nc(-c4ccccc4C)c(Cl)cc23)C[C@H]1C (single isomer, unassigned) [Example 213-3] | 0.066 µM | – | – | 0.074 µM | > 7.5 µM | –
21 | C=CC(=O)N1C[C@H](C)N(c2nc(=O)n(-c3c(C)cc(S(C)(=O)=O)cc3C(C)C)c3nc(-c4ccccc4F)c(Cl)cc23)C[C@H]1C (single isomer, unassigned) [Example 215-2] | 0.055 µM | 0.086 µM | > 7.5 µM | – | – | –
